Assay results: patent US12589101B2, “Cyclodextrin protein drug conjugates” (Regeneron Pharmaceuticals, Inc., priority 2017, dated 2026)
≈ marks a conversion by molar mass, not a printed value. Read-outs that look alike come from different tables or passages of the source.

Experiments:
[1] = Solubility of linker-payloads (LC-MS standard curve, saturated solution); assay type: physicochemical; settings: water, thermodynamic from solid
Method: The following test assays the solubility of the linker-payloads with a cyclodextrin moiety and the linker-payloads without a cyclodextrin moiety.
The test compounds were dissolved in DMSO to build a standard curve using LC-MS method A or B. The test sample was dissolved in water and sonicated for 10 minutes, and then centrifuged. The upper clear solution was analyzed using the same method A or B and the solubility was calculated based on its peak area.
Detailed test procedures were as follows: • 1. […] 0.05 mg of compound was suspended in water (1 mL) and sonicated for 10 minutes. After centrifugation, the clear solution above was collected to provide the saturated sample solution. • 3. All the standard solutions A, B, C, D, E and sample solution were analyzed by LCMS (using the same method and same injection volume) to obtain the peak areas. • 4. Calculate the standard curve according to the data of A-D (X=concentration, Y=peak areas). • 5. Calculate to obtain the concentration of saturated sample solution according to the functions obtained above.

Cathepsin B = Cathepsin B (Homo sapiens, UniProt P07858); assay: Cathepsin B cleavage rate of linker-payloads (Example 66); assay type: biochemical; settings: Cathepsin B cleavage rate; for CapB (%): pH 5.0, 37° C.; for capB: Table 8A
Method: Step 1: Preparation of Cathepsin B buffer: 0.1 M NaOAc/0.01M DTT (pH5.0) Dissolve 8.3 g/L NaOAc, 1.54 g/L DTT in deionized water. Adjust pH to 5.0 with HCl/sodium hydroxide.
Step 2: Test Cleavage Rate
• 1. Prepare 25 μM of testing sample: To a 2-mL-tube was added 0.5 mg of testing sample, followed by the addition of 0.2 mL of DMSO. The solution was added dropwise into 0.8 mL of 0.1 M NaOAc/0.01 M DTT buffer. The obtained mixtures were sonicated for 5 minutes to obtain clear and colorless solutions. The pH value of the solution was around 5 according to pH test strip. • 2. Preheat assay buffer: 0.1 M NaOAc/0.01 M DTT (pH 5.0) • 3. Spiking solutions for test compounds: 25 μM Spiking solutions for test compounds: Add 2 μL of 5 mM stock solution into 398 μL of 0.1 M NaOAc/0.01 M DTT buffer (pH 5.0). • 4. Prepare 0.47 μg/μL Cathepsin B in 50 mM NaOAc/1 mM EDTA (pH 5.0). Put on ice. • 5. Without CA074 samples: Add 4 μL of 0.47 μg/μL Cathepsin B into 196 μL of 25 μM Spiking solutions (from step 2), incubate the tubes at 37° C. • 6. With CA074 samples: Add 4 μL of 0.47 μg/μL Cathepsin B with 4 μL of 10 mM Inhibitor (CA074) into 196 μL of 25 μM Spiking solutions (from step 2), incubate the tubes. • 7. After quenching, shake the plate and centrifuge them at 14000 rpm. • 8. Transfer 50 μL of the supernatant from each well into a 96-well sample plate containing 50 μL of ultra pure water (Millipore, ZMQS50F01) for LC/MS analysis. Step 3: Test reference compounds: • 9. Preheat assay buffer: 100 mM Na/K phosphate, pH 6.0, with 1.33 mM EDTA and 2 mM DTT. • 10. Prepare 0.024 μg/μL Cathepsin B: Add 1 μL of 0.47 μg/μL Cathepsin B stock into 19 μL of assay buffer (from step 11). • 11. Add 2 μL of 0.024 μg/μL Cathepsin B (from step 12) to a opaque 96-well plate. • 12. Add 96 μL of assay buffer to each sample. • 13. Add 2 μL of the 10 mM substrate Z-RR-MNA (200 μM final concentration). • 14. For negative control (With inhibitor), add 2 μL of 10 mM Inhibitor (CA074): Immediately read the samples in a kinetic mode at excitation of 340 nm/emission of 425 nm (Read the plate every 30 Second for 3 min). Step 4: Stability of Cathepsin B in incubation samples: • 15. Take 5 μL of incubation samples into 93 μL of assay buffer (from step 11), and then add 2 μL of 10 mM substrate (Z-RR-MNA). • 16. Incubate the samples at 37° C. for 2 min. • 17. Read the samples at excitation of 340 nm/emission of 425 nm.

| Structure (SMILES) | CapB (%) (Cathepsin B) | solubility at 10 min ([1]; Aq. Solubility (mg/mL)) | solubility at 10 min ([1]; Solubility) | other results |
| --- | --- | --- | --- | --- |
| CC[C@H](C)[C@@H]([C@@H](CC(=O)N1CCC[C@H]1[C@H](OC)[C@@H](C)C(=O)N[C@H](C)[C@@H](O)c1ccccc1)OC)N(C)C(=O)[C@@H](NC(=O)[C@H](C(C)C)N(C)C(=O)OCc1ccc(NC(=O)[C@H](CCCNC(N)=O)NC(=O)[C@@H](NC(=O)[C@@H](CCCCNC(=O)CCC(=O)N2Cc3ccccc3C#Cc3ccccc32)NC(=O)CCCCCN2C(=O)CC(N3CCN(CC4OC5OC6C(CO)OC(OC7C(CO)OC(OC8C(CO)OC(OC9C(CO)OC(OC%10C(CO)OC(OC4C(O)C5O)C(O)C%10O)C(O)C9O)C(O)C8O)C(O)C7O)C(O)C6O)CC3)C2=O)C(C)C)cc1)C(C)C (stereo partly drawn) [Ex38] | – | – | – | solubility at 10 min ([1]; aqueous, read-out: Aq. Solubility): 500 µg/mL (≈ 180 µM); solubility at 10 min ([1]; read-out: Solubility): 250 µg/mL (≈ 90.2 µM) |
| CC[C@H](C)[C@@H]([C@@H](CC(=O)N1CCC[C@H]1[C@H](OC)[C@@H](C)C(=O)N[C@H](C)[C@@H](O)c1ccccc1)OC)N(C)C(=O)[C@@H](NC(=O)[C@H](C(C)C)N(C)C(=O)OCc1ccc(NC(=O)[C@H](CCCNC(N)=O)NC(=O)[C@@H](NC(=O)[C@@H](CCCCNC(=O)CCOCCOCCOCCOCCNC(=O)COC2CCCCCc3c2nnn3CC2OC3OC4C(CO)OC(OC5C(CO)OC(OC6C(CO)OC(OC7C(CO)OC(OC8C(CO)OC(OC2C(O)C3O)C(O)C8O)C(O)C7O)C(O)C6O)C(O)C5O)C(O)C4O)NC(=O)CCOCCOCCOCCOCCNC(=O)CCC(=O)N2Cc3ccccc3C#Cc3ccccc32)C(C)C)cc1)C(C)C (stereo partly drawn) [Ex43] | % (50< % ≤60 CapB (%)) | – | – | – |
| CC[C@H](C)[C@@H]([C@@H](CC(=O)N1CCC[C@H]1[C@H](OC)[C@@H](C)C(=O)N[C@H](C)[C@@H](O)c1ccccc1)OC)N(C)C(=O)[C@@H](NC(=O)[C@H](C(C)C)N(C)C(=O)OCc1ccc(NC(=O)[C@H](CCCNC(N)=O)NC(=O)[C@@H](NC(=O)[C@@H](CCCCNC(=O)CCOCCOCCOCCOCCNC(=O)COC2CCCCCc3c2nnn3CC2OC3OC4C(CO)OC(OC5C(CO)OC(OC6C(CO)OC(OC7C(CO)OC(OC8C(CO)OC(OC2C(O)C3O)C(O)C8O)C(O)C7O)C(O)C6O)C(O)C5O)C(O)C4O)NC(=O)CCOCCOCCOCCOCCNC(=O)OC[C@@H]2[C@@H]3CCC#CCC[C@@H]32)C(C)C)cc1)C(C)C (stereo partly drawn) [Ex44] | % (50< % ≤60 CapB (%)) | – | – | – |
| CC(C)[C@H](NC(=O)[C@@H](CCCCNC(=O)CCOCCOCCOCCOCCNC(=O)COC1CCCCCc2nnn(CC3OC4OC5C(CO)OC(OC6C(CO)OC(OC7C(CO)OC(OC8C(CO)OC(OC9C(CO)OC(OC3C(O)C4O)C(O)C9O)C(O)C8O)C(O)C7O)C(O)C6O)C(O)C5O)c21)NC(=O)CCOCCOCCOCCOCCNC(=O)OCC1C2CCC#CCCC21)C(=O)N[C@@H](C)C(=O)Nc1ccc2c(c1)[C@@]1(C)CCC[C@](C)(C(=O)NC(=O)[C@@]3(C)CCC[C@]4(C)c5cc(O)ccc5CC[C@@H]34)[C@@H]1CC2 (stereo partly drawn) [Ex51, BCN-PEG4-D-Lys(PEG4-COT-CD)-Val-Ala-1d] | – | 180 µg/mL (≈ 67.7 µM) | 330 µg/mL (≈ 124 µM) | – |
| CC(C)[C@H](NC(=O)[C@@H](CCCCNC(=O)CCOCCOCCOCCOCCNC(=O)COC1CCCCCc2nnn(CC3OC4OC5C(CO)OC(OC6C(CO)OC(OC7C(CO)OC(OC8C(CO)OC(OC9C(CO)OC(OC3C(O)C4O)C(O)C9O)C(O)C8O)C(O)C7O)C(O)C6O)C(O)C5O)c21)NC(=O)CCOCCOCCOCCOCCNC(=O)OCC1C2CCC#CCCC21)C(=O)N[C@@H](CCCNC(N)=O)C(=O)Nc1ccc(COC(=O)NCCOc2ccc3c(c2)[C@@]2(C)CCC[C@](C)(C(=O)NC(=O)[C@@]4(C)CCC[C@]5(C)c6cc(O)ccc6CC[C@@H]45)[C@@H]2CC3)cc1 (stereo partly drawn) [Ex52, BCN-PEG4-D-Lys(PEG4-COT-CD)-vcPAB-1e] | – | 300 µg/mL (≈ 102 µM) | 290 µg/mL (≈ 98.7 µM) | – |
| CC(C)[C@H](NC(=O)[C@@H](CCCCNC(=O)COC1CCCCCc2c1nnn2CC1OC2OC3C(CO)OC(OC4C(CO)OC(OC5C(CO)OC(OC6C(CO)OC(OC7C(CO)OC(OC1C(O)C2O)C(O)C7O)C(O)C6O)C(O)C5O)C(O)C4O)C(O)C3O)NC(=O)CCOCCOCCOCCOCCNC(=O)OCC1C2CCC#CCCC21)C(=O)N[C@@H](C)C(=O)Nc1ccc2c(c1)[C@@]1(C)CCC[C@](C)(C(=O)NC(=O)[C@@]3(C)CCC[C@]4(C)c5cc(O)ccc5CC[C@@H]34)[C@@H]1CC2 (stereo partly drawn) [Ex54, BCN-PEG4-D-Lys(COT-CD)-Val-Ala-1d] | – | 300 µg/mL (≈ 124 µM) | – | – |
| CC(C)[C@H](NC(=O)[C@@H](CCCCNC(=O)COC1CCCCCc2c1nnn2CC1OC2OC3C(CO)OC(OC4C(CO)OC(OC5C(CO)OC(OC6C(CO)OC(OC7C(CO)OC(OC1C(O)C2O)C(O)C7O)C(O)C6O)C(O)C5O)C(O)C4O)C(O)C3O)NC(=O)CCOCCOCCOCCOCCNC(=O)CCC(=O)N1Cc2ccccc2C#Cc2ccccc21)C(=O)N[C@@H](CCCNC(N)=O)C(=O)Nc1ccc(COC(=O)N[C@@H](CO)C(=O)Nc2ccc3c(c2)[C@@]2(C)CCC[C@](C)(C(=O)NC(=O)[C@@]4(C)CCC[C@]5(C)c6cc(O)ccc6CC[C@@H]45)[C@@H]2CC3)cc1 (stereo partly drawn) [Ex56, DIBAC-suc-PEG4-D-Lys(COT-CD)-vcPAB-1g] | – | < 100 µg/mL | < 100 µg/mL | – |
| CC(C)[C@H](NC(=O)[C@@H](CCCCNC(=O)COC1CCCCCc2c1nnn2CC1OC2OC3C(CO)OC(OC4C(CO)OC(OC5C(CO)OC(OC6C(CO)OC(OC7C(CO)OC(OC8C(CO)OC(OC9C(CO)OC(OC1C(O)C2O)C(O)C9O)C(O)C8O)C(O)C7O)C(O)C6O)C(O)C5O)C(O)C4O)C(O)C3O)NC(=O)CCOCCOCCOCCOCCNC(=O)CCC(=O)N1Cc2ccccc2C#Cc2ccccc21)C(=O)N[C@@H](C)C(=O)Nc1ccc2c(c1)[C@@]1(C)CCC[C@](C)(C(=O)NC(=O)[C@@]3(C)CCC[C@]4(C)c5cc(O)ccc5CC[C@@H]34)[C@@H]1CC2 (stereo partly drawn) [Ex57, DIBAC-suc-PEG4-D-Lys(COT-CD)-vcPAB-1d] | – | – | – | capB (Cathepsin B): 8.3% |
| CCCC1O[C@@H]2C[C@H]3[C@@H]4C[C@H](F)C5=CC(=O)C=C[C@]5(C)[C@@]4(F)[C@@H](O)C[C@]3(C)[C@]2(C(=O)CNC(=O)OCc2ccc(NC(=O)[C@H](CCCNC(N)=O)NC(=O)[C@@H](NC(=O)[C@@H](CCCCNC(=O)COC3CCCCCc4c3nnn4CC3OC4OC5C(CO)OC(OC6C(CO)OC(OC7C(CO)OC(OC8C(CO)OC(OC9C(CO)OC(OC3C(O)C4O)C(O)C9O)C(O)C8O)C(O)C7O)C(O)C6O)C(O)C5O)NC(=O)CCOCCOCCOCCOCCNC(=O)OC[C@@H]3[C@@H]4CCC#CCC[C@@H]43)C(C)C)cc2)O1 (stereo partly drawn) [Ex60, BCN-PEG4-dLys(COT-CD)-vcPAB-1h] | % (% ≤50 CapB (%)) | – | – | – |
| CCCC1O[C@@H]2C[C@H]3[C@@H]4C[C@H](F)C5=CC(=O)C=C[C@]5(C)[C@@]4(F)[C@@H](O)C[C@]3(C)[C@]2(C(=O)COc2ccc(NC(=O)OCc3ccc(NC(=O)[C@H](CCCNC(N)=O)NC(=O)[C@@H](NC(=O)[C@@H](CCCCNC(=O)COC4CCCCCc5c4nnn5CC4OC5OC6C(CO)OC(OC7C(CO)OC(OC8C(CO)OC(OC9C(CO)OC(OC%10C(CO)OC(OC4C(O)C5O)C(O)C%10O)C(O)C9O)C(O)C8O)C(O)C7O)C(O)C6O)NC(=O)CCOCCOCCOCCOCCNC(=O)CCC(=O)N4Cc5ccccc5C#Cc5ccccc54)C(C)C)cc3)cc2)O1 (stereo partly drawn) [Ex62, DIBAC-suc-PEG4-dLys(COT-CD)-vcPAB-1i] | % (% ≤50 CapB (%)) | – | – | capB (Cathepsin B): 12.8% |
